Assay results: patent publication US10030027B2, “Soluble guanylate cyclase stimulators” (MERCK SHARP & DOHME CORP., priority 2015, dated 2018)

What was measured:
sGC α1/β1 heterodimer = sGC α1/β1 heterodimer (Homo sapiens (Human), UniProt Q02108+Q02153); experiment: Cell-based sGC functional assay (cyclic GMP assay for sGC activator: CASA assay); settings: CHO-K1/sGC cells; for Emax: CHO-K1, activity expressed as percentage of compound A (standard), read-out: % Activation; for EC50: inflection point, 4P fit, read-out: IP
From the text: Cell-Based sGC Functional Assay (Cyclic GMP Assay for sGC Activator: CASA Assay)
Soluble guanylate cyclase (sGC) is a heme-containing enzyme that converts GTP to secondary messenger cGMP. Increases in cGMP levels affect several physiological processes including vasorelaxation through multiple downstream pathways. […] Heme-dependent activators (HDAs) preferentially activate sGC containing a ferrous heme group. To determine the effect of sGC activators on enzyme activity, the CASA assay was developed to monitor the generation of cGMP in a cell line that stably expresses the heterodimeric sGC protein.
A CHO-K1 cell line stably expressing the sGC α1/β1 heterodimer was generated using a standard transfection protocol. CHO-K1 cells were transfected with plasmids pIREShyghsGCα1 and pIRESneo-hsGCβ1 simultaneously using FUGENE reagent. Clones that stably express both subunits were selected with hygromycin and neomycin for ˜2 weeks. Clone #7 was chosen for the assay and was designated CHO-K1/sGC. CHO-K1/sGC cells were maintained in F-K12 medium containing 10% heat-inactivated Fetal Bovine Serum (FBS), 100 μg/mL penicillin/streptomycin, 0.5 mg/mL hygromycin and 0.25 mg/mL G418. The cells were then cryopreserved in LN2. On the day of the assay, the cells were thawed and resuspended in EBSS Assay Buffer (Sigma, E3024) supplemented with 5 mM MgCl2, 10 mM HEPES (4-(2-hydroxyethyl)piperazine-1-ethanesulfonic acid) and 0.05% BSA (bovine serum albumin) (EAB) and cell density was then adjusted to 2.25×10^5/mL with EAB. IBMX (3-isobutyl-1-methylxanthin, 0.5 mM) was added to inhibit degradation of cGMP. Compounds were diluted from DMSO stock solutions and added to the assay at a final DMSO concentration of 2.5%. Cells were pre-incubated in the presence and absence of 1 μM of Diethylenetriamine/nitric oxide adduct (DETA-NO; Sigma, 17018) for 30 min at 25° C. Compounds are subsequently added and incubated for 1 hr at 37° C. At the end of the incubation period, the reaction was terminated and the cells were lysed with the detection reagents from Cisbio Kits. The level of intracellular cGMP was determined using an HTRF-based assay kit (CisBio, 62GM2PEC), which detects the displacement of a fluorescence labeled cGMP from its specific antibody. The cGMP produced by test compounds was directly compared to the maximum cGMP production (this value was set to equal 100% activation.) of the published sGC-HDA compound A:
(Example 1 in WO 2010/065275, published Jun. 10, 2010). The test compounds' activity were then expressed as a percentage of compound A, the standard in every experiment. This percent activation was calculated either in the presence or absence of DETA-NO which was then plotted. Inflection points (IP) and maximum fold induction was derived using Abase analysis software for 4P fit.

[1] = molecular target: human recombinant sGC enzyme (Homo sapiens (Human), UniProt Q02108+Q02153); experiment: Size Exclusion Chromatography (SEC) competition binding assay using [3H] Ex-77B as the radioligand; settings: [3H] Ex-77B radioligand, 24 hours at 37° C.
Experimental: Binding Assay: The binding potencies of sGC compounds to the human recombinant sGC enzyme were determined in a Size Exclusion Chromatography (SEC) competition binding assay using [^3H] Ex-77B as the radioligand. [^3H] Ex-77B was prepared using a standardardized tritium exchange procedure. The parent (non-labeled) molecule was first iodinated then a Pd-catalyzed iodine to tritium exchange provided the labeled compound. […] Assays were conducted in 96-well plates in a total volume of 200 μL. […] Non-specific binding was defined by competition with 1 μM of Ex-77B. After the incubation period, the binding mixtures were loaded onto the gel-filtration plate (ThermoFischer Cat. No. 89808) pre-equilibrated with binding buffer and spun at 1000×g for 3 min at 4° C. on a Bench top centrifuge. The collected eluates in White Frame Clear Well Isoplates (Perkin Elmer Cat #6005040) received 100 μl of UltimaGold scintillation cocktail. The sealed plates were shaken vigorously and span, and counted after 6 hours with a Wallac Microbeta TriLux 1450 LSC & Luminescence Counter (Perkin Elmer). Data from competition experiments were analyzed to determine Ki values using one site fit Ki equation.

| SMILES | Emax (sGC α1/β1 heterodimer) [%] | EC50 (sGC α1/β1 heterodimer) [nM] | Ki [1] [nM] |
| --- | --- | --- | --- |
| C[C@@]1(c2ccc(CCC(=O)O)cc2)C(=O)Nc2nc(-c3nn(Cc4ccccc4F)c4cc(Cl)c(O)cc34)nc(N)c21 [Example 110B, (S)-3-(4-{4-Amino-2-[6-chloro-1-(2-fluorobenzyl)-5-hydroxy-1H-indazol-3-yl]-5-methyl-6-oxo-6,7-dihydro-5H-pyrrolo[2,3-d]pyrimidin-5-yl}phenyl)propanoic acid] | 78 | 1130 | 0.361 |
| CC(C)(Cc1coc(C2(C)C(=O)Nc3nc(-c4nn(CC5CCCCO5)c5ncccc45)nc(N)c32)n1)C(=O)O (single isomer, unassigned) [Example 124AB, 3-{2-[4-amino-5-methyl-6-oxo-2-{1-[tetrahydro-2H-pyran-2-ylmethyl]-1H-pyrazolo[3,4-b]pyridin-3-yl}-6,7-dihydro-5H-pyrrolo[2,3-d]pyrimidin-5-yl]-1,3-oxazol-4-yl}-2,2-dimethylpropanoic acid] | – | – | 0.617 |
| CC1(c2cccc(-c3nn[nH]n3)c2)C(=O)Nc2nc(-c3nn(CCC(F)(F)C(F)(F)F)c4cc(Cl)ccc34)nc(N)c21 (single isomer, unassigned) [Example 251B, 4-amino-2-[6-chloro-1-(3,3,4,4,4-penta-fluorobutyl)-1H-indazol-3-yl]-5-methyl-5-[3-(1H-tetrazol-5-yl)phenyl]-5,7-dihydro-6H-pyrrolo[2,3-d] pyrimidin-6-one] | – | – | 0.182 |
| CC1(c2cc(C(=O)O)ccn2)C(=O)Nc2nc(-c3nn(Cc4ccccc4F)c4cc(Cl)ccc34)nc(N)c21 (stereo not shown) [Example 219A, 2-{4-amino-2-[6-chloro-1-(2-fluorobenzyl)-1H-indazol-3-yl]-5-methyl-6-oxo-6,7-dihydro-5H-pyrrolo[2,3-d]pyrimidin-5-yl} pyridine-4-carboxylic acid] | – | – | 0.183 |
| C[C@@]1(c2ccc(CCc3nn[nH]n3)cc2)C(=O)Nc2nc(-c3nn(Cc4ncccc4F)c4ccccc34)nc(N)c21 [Example 245B, (S)-5-{4-[2-(2H-tetrazol-5-yl)ethyl]phenyl}-4-amino-2-{1-[(3-fluoro-pyridin-2-yl)methyl]-1H-indazol-3-yl}-5-methyl-5,7-dihydro-6H-pyrrolo[2,3-d] pyrimidin-6-one] | – | – | 0.333 |
| CC1(c2ccc(C(=O)O)cc2)C(=O)Nc2nc(-c3nn(CCC(F)(F)C(F)(F)F)c4cc(Cl)ccc34)nc(N)c21 (stereo not shown) [Example 155B, 4-{4-amino-2-[6-chloro-1-(3,3,4,4,4-pentafluorobutyl)-1H-indazol-3-yl]-5-methyl-6-oxo-6,7-dihydro-5H-pyrrolo[2,3-d]pyrimidin-5-yl} benzoic acid] | – | – | 0.42 |
| CC1(c2ccc(CC(=O)O)cc2)C(=O)Nc2nc(-c3nn(Cc4ccccc4F)c4cc(Cl)ccc34)nc(N)c21 (stereo not shown) [Example 117A, 2-(4-{4-amino-2-[6-chloro-1-(2-fluorobenzyl)-1H-indazol-3-yl]-5-methyl-6-oxo-6,7-dihydro-5H-pyrrolo[2,3-d]pyrimidin-5-yl}phenyl)acetic acid] | 69 | 302 | – |
| CC(C)(CCc1csc(C2(C)C(=O)Nc3nc(-c4nn(Cc5ccccc5F)c5cc(Cl)ccc45)nc(N)c32)n1)C(=O)O (stereo not shown) [Example 166A, 4-(2-{4-amino-2-[6-chloro-1-(2-fluorobenzyl)-1H-indazol-3-yl]-5-methyl-6-oxo-6,7-dihydro-5H-pyrrolo[2,3-d]pyrimidin-5-yl}-1,3-thiazol-4-yl)-2,2-dimethyl-butanoic acid] | 86.4 | – | – |
| CC(C)(Cc1coc(C2(C)C(=O)Nc3nc(-c4nn(CC5CCCCO5)c5cc(F)ccc45)nc(N)c32)n1)C(=O)O (single isomer, unassigned) [Example 134AB, 3-{2-[4-amino-2-{6-fluoro-1-[tetrahydro-2H-pyran-2-ylmethyl]-1H-indazol-3-yl}-5-methyl-6-oxo-6,7-dihydro-5H-pyrrolo[2,3-d]pyrimidin-5-yl]-1,3-oxazol-4-yl}-2,2-dimethylpropanoic acid] | – | – | 0.461 |
| CC1CCC(Cn2nc(-c3nc(N)c4c(n3)NC(=O)[C@@]4(C)c3nc(CC(C)(C)C(=O)O)cs3)c3cccnc32)CC1 (single isomer, unassigned) [Example 125AA] | – | – | 0.783 |
| CC1(c2cccc(CCC(=O)O)c2)C(=O)Nc2nc(-c3nn(Cc4ccccc4F)c4cc(Cl)ccc34)nc(N)c21 (stereo not shown) [Example 48A, 3-(3-{4-amino-2-(6-chloro-1-(2-fluorobenzyl)-1H-indazol-3-yl)-5-methyl-6-oxo-6,7-dihydro-5H-pyrrolo[2,3-d]pyrimidin-5-yl}phenyl)propanoic acid] | 102 | 257 | – |
| CC(C)(Cc1coc(C2(C)C(=O)Nc3nc(-c4nn(CC5CCCCO5)c5ccccc45)nc(N)c32)n1)C(=O)O (single isomer, unassigned) [Example 230AB, 3-{2-[4-amino-5-methyl-6-oxo-2-{1-[tetrahydro-2H-pyran-2-ylmethyl]-1H-indazol-3-yl}-6,7-dihydro-5H-pyrrolo[2,3-d]pyrimidin-5-yl]-1,3-oxazol-4-yl}-2,2-dimethyl-propanoic acid] | – | – | 0.28 |
| CC1(c2ccc(CCCC(=O)O)cc2)C(=O)Nc2nc(-c3nn(Cc4ccccc4F)c4cc(Cl)ccc34)nc(N)c21 (stereo not shown) [Example 115A, 4-(4-{4-amino-2-[6-chloro-1-(2-fluorobenzyl)-1H-indazol-3-yl]-5-methyl-6-oxo-6,7-dihydro-5H-pyrrolo[2,3-d]pyrimidin-5-yl}phenyl)butanoic acid] | 79 | 122 | – |
| C[C@@]1(c2ccc(CCC(=O)O)cc2)C(=O)Nc2nc(-c3nn(Cc4ccccc4F)c4ccc(Cl)cc34)nc(N)c21 [Example 73B, (S)-3-(4-{4-amino-2-[5-chloro-1-(2-fluorobenzyl)-1H-indazol-3-yl]-5-methyl-6-oxo-6,7-dihydro-5H-pyrrolo[2,3-d]pyrimidin-5-yl}phenyl)propanoic acid] | 87 | 85 | – |
| C[C@@]1(c2ccc(CCC(=O)O)cc2)C(=O)Nc2nc(-c3nn(Cc4ccccc4F)c4ccc(F)cc34)nc(N)c21 [Example 71B, (S)-3-(4-{4-amino-2-[5-fluoro-1-(2-fluorobenzyl)-1H-indazol-3-yl]-5-methyl-6-oxo-6,7-dihydro-5H-pyrrolo[2,3-d]pyrimidin-5-yl}phenyl)propanoic acid] | 78 | 73 | – |
| CC1(c2cccc(CCC(=O)O)c2)C(=O)Nc2nc(-c3nn(Cc4ccccc4F)c4ncc(F)cc34)nc(N)c21 (stereo not shown) [Example 24A, 3-(3-{4-amino-2-[5-fluoro-1-(2-fluorobenzyl)-1H-pyrazolo[3,4-b]pyridin-3-yl]-5-methyl-6-oxo-6,7-dihydro-5H-pyrrolo[2,3-d]pyrimidin-5-yl}phenyl)propanoic acid] | 106 | 210 | – |
| CC1(c2cccc(CCC(=O)O)c2)C(=O)Nc2nc(-c3nn(Cc4ccccc4F)c4ccccc34)nc(N)c21 (stereo not shown) [Example 53A, 3-(3-{4-amino-2-[1-(2-fluorobenzyl)-1H-indazol-3-yl]-5-methyl-6-oxo-6,7-dihydro-5H-pyrrolo[2,3-d]pyrimidin-5-yl}phenyl)propanoic acid] | 102 | 124 | – |
| CC1(c2nc(CCCC(=O)O)cs2)C(=O)Nc2nc(-c3nn(Cc4ccccc4F)c4cc(Cl)ccc34)nc(N)c21 (stereo not shown) [Example 49A, 4-(2-{4-amino-2-(6-chloro-1-(2-fluorobenzyl)-1H-indazol-3-yl)-5-methyl-6-oxo-6,7-dihydro-5H-pyrrolo[2,3-d]pyrimidin-5-yl}thiazol-4-yl)butanoic acid] | 91 | 119 | – |
